Test results published in patent US20230107216A1, “PANTETHEINE DERIVATIVES AND USES THEREOF” (Comet Therapeutics, Inc., priority 2018, published 2023).
Read-outs that look alike come from different tables or passages of the source.

Experiments:
[1] = test system: Propionic Acidemia (PA) primary fibroblasts Tsi 6337; test: Mitochondrial respiration, XFe96 Extracellular Flux Analyzer (OCR/ECAR), PA fibroblasts Tsi 6337; assay type: cell-based; details: Homo sapiens, Fibroblast, read-out: Increase in Maximal Respiratory Capacity AUC
Procedure: The effect of the compounds of the present disclosure on mitochondrial respiration was measured with a XFe96 Extracellular Flux Analyzer (Seahorse Bioscience, Agilent Technologies) and Oxygen consumption Rate (OCR) and Extracellular acidification rate (ECAR) determined.
Cell culture and treatments. Primary adherent fibroblasts were cultured in minimum essential medium (MEM) (Gibco, 25030081) supplemented with 2 mM L-Glutamine (Gibco, 25030081), 15% fetal bovine serum (FBS) (Gibco, 26400044) and 1% penicillin/streptomycin (Gibco, 5140122) at 37° C. and 5% CO2. Cells were collected for either passaging or experiment at ˜70-80% confluence. Cells were obtained by trypsinization and seeded at 20000 cells/well in cell culture microplates (Seahorse Bioscience, 101085-004) and allowed to adhere for 16 hours in culture media.
By profiling different primary cells and/or optimizing their culture media or environmental components one can select cell lines and/or conditions that are appropriate for the biological or disease model. In the present example, 24 hours prior to OCR and ECAR profiling, media was changed to Dulbecco's Modified Eagle Medium (DMEM, Agilent Seahorse 103575-100) with the appropriate supplements for the different primary cells (10 mM glucose, 2 mM L-glutamine, 1 mM pyruvate, 10% FBS; 1 mM glucose, 2 mM L-glutamine, 1 mM pyruvate, 10% FBS; 10 mM glucose, 10% FBS; 5 mM glucose 10% FBS; 1 mM glucose 10% FBS). Cells used in this example were: Propionic Acidemia (PA) (GM00371, GM03590 Coriell Institute for Medical Research, Tsi 6337, Tsi 4626, Tsi 3618 Trans-Hit Bio), Methylmalonic Acidemia (MMA) (GM01673, Coriell Institute for Medical Research, Tsi 5224 Trans-Hit Bio), Branched chain ketoacid dehydrogenase kinase (BCKDK) (GM00612, GM00649 Coriell Institute for Medical Research), Subnormal activation of pyruvate dehydrogenase complex (PDH) (GM01503 Coriell Institute for Medical Research), Very long-chain acyl-CoA dehydrogenase (VLCAD) (GM17475), Leigh Syndrome (LS) (GM03672, GM13411 Coriell Institute for Medical Research), Pyruvate Carboxylase Deficiency (PC) (GM00444 Coriell Institute for Medical Research), Glutaric Acidemia-I (GA) (GM10653), Friedreich's Ataxia (FXN) (GM04078 Coriell Institute for Medical Research, Huntington's disease (HD) (GM21756 Coriell Institute for Medical Research), Ornithine Transcarbamylase Deficiency (OTC) (GM12756 Coriell Institute for Medical Research), Kearns-Sayre Syndrome (KSS) (GM06225 Coriell Institute for Medical Research).
One hour before the assay, the cells were washed with freshly prepared unbuffered serum free-Seahorse XF Assay medium (Seahorse Bioscience, North America, USA, 103575-100) with the same supplements as for the previous 24 hour incubation.
After baseline measurements of OCR, cells were challenged with compounds of the present disclosure at different concentrations (10 to 50 μM) or vehicle (DMSO, 0.1%) and a post-compound baseline was recorded. OCR was measured after sequentially adding to each well 1 μg/ml oligomycin (inhibitor of ATP synthase Sigma-Aldrich, 753531), then maximal OCR was determined with carbonyl cyanide 4-(trifluoromethoxy) phenylhydrazone (FCCP, Sigma-Aldrich, C2920), (uncoupler of oxidative phosphorylation) and 0.5 μM of rotenone (Sigma-Aldrich, R8875) plus antimycin A (Sigma-Aldrich, A8674) (inhibitors of mitochondrial complex I and III) for determination of rotenone-antimycin insensitive respiration together with Hoechst for nuclear staining in situ when normalized to cell counts. After the analysis and nuclear staining, the XFp microplate was transferred to the Cytation 5, and the nuclear images were captured, the individual nuclei were identified and counted by BioTek Gen5 software. Data were expressed as pmol of O2 per minute and normalized by nuclear staining and baselined to pre-compound addition.
Assay conditions were as stated below.
Assay specifics on assay conditions are indicated below when readouts were normalized to cell counts. […]

[2] = test system: Methylmalonic Acidemia (MMA) primary fibroblasts GM01673; test: Mitochondrial respiration, XFe96 Extracellular Flux Analyzer (OCR/ECAR), MMA fibroblasts GM01673; assay type: cell-based; details: Homo sapiens, Fibroblast
Procedure, shortened: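 Primary fibroblasts (20000 cells/well) were held 24 h in supplemented DMEM before Seahorse OCR/ECAR profiling. Compounds at 10 to 50 μM or 0.1% DMSO were injected after baseline, then oligomycin 1 μg/ml, FCCP, and rotenone/antimycin A 0.5 μM. Values were normalized to Hoechst nuclear counts, baselined to pre-compound, and expressed relative to vehicle.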

[3] = PA Tsi 6337, assay condition A (10 mM glucose, 2 mM L-glutamine, 1 mM pyruvate, 10% FBS)
[4] = PA Tsi 6337, assay condition D (1 mM glucose, 10% FBS)
[5] = assay condition D (1 mM glucose, 10% FBS), read-out: Increase in Maximal Respiratory Capacity AUC
[6] = assay condition A (10 mM glucose, 2 mM L-glutamine, 1 mM pyruvate, 10% FBS), read-out: Increase in Maximal Respiratory Capacity AUC

COC(=O)CC[C@H](N)C(=O)SCCNC(=O)CCNC(=O)[C@H](O)C(C)(C)CO [Compound 411]
activation at 10 µM [1, 3]: ≥ 10%
activation at 10 µM [1, 4]: ≥ 10%

COC(=O)/C=C/C(=O)SCCNC(=O)CCNC(=O)[C@H](O)C(C)(C)COP(=O)(O)O [Compound 73, methyl (R,E)-4-((2-(3-(2-hydroxy-3,3-dimethyl-4-(phosphonooxy)butanamido)propanamido)ethyl)thio)-4-oxobut-2-enoate]
activation at 10 µM [1, 4]: ≥ 10%

CC(C)(COC(=O)CCC(=O)O)[C@@H](O)C(=O)NCCC(=O)NCCS [Compound 1310, (R)-4-(3-hydroxy-4-((3-((2-mercaptoethyl)amino)-3-oxopropyl)amino)-2,2-dimethyl-4-oxobutoxy)-4-oxobutanoic acid]
activation at 10 µM [1, 3]: ≥ 10%

CC(C)(CO)[C@@H](O)C(=O)NCCC(=O)NCCSC(=O)CCCN [Compound 370, (2R)—N-[2-([2-[(4-aminobutanoyl)sulfanyl]ethyl]carbamoyl)ethyl]-2,4-dihydroxy-3,3-dimethylbutanamide]
activation at 10 µM [2, 5]: ≥ 10%

CCC(C)C(=O)CC(=O)SCCNC(=O)CCNC(=O)[C@H](O)C(C)(C)CO (stereo partly drawn) [Compound 1240, S-(2-(3-((R)-2,4-dihydroxy-3,3-dimethylbutanamido)propanamido)ethyl) 4-methyl-3-oxohexanethioate]
activation at 10 µM [1, 4]: ≥ 10%

CC(=O)SCCNC(=O)CCNC(=O)[C@H](O)C(C)(C)COC(=O)CCC(=O)O [Compound 1242, (R)-12-hydroxy-13,13-dimethyl-2,7,11,16-tetraoxo-15-oxa-3-thia-6,10-diazanonadecan-19-oic acid]
activation at 10 µM [1, 3]: ≥ 10%

CC(C)(CO)[C@@H](O)C(=O)NCCC(=O)NCCSC(=O)CCCO [Compound 1304, (2R)-2,4-dihydroxy-N-[2-([2-[(4-hydroxybutanoyl)sulfanyl]ethyl]carbamoyl)ethyl]-3,3-dimethylbutanamide]
activation at 10 µM [2, 6]: ≥ 10%

CC(C)(CO)[C@@H](O)C(=O)NCCC(=O)NCCSC(CC(=O)OCC[N+](C)(C)C)C(=O)O (stereo partly drawn) [Compound 51, [2-([3-carboxy-3-[(2-[3-[(2R)-2,4-dihydroxy-3,3-dimethylbutanamido]propanamido]ethyl)sulfanyl]propanoyl]oxy)ethyl]trimethylazanium]
activation at 10 µM [2, 5]: ≥ 10%

COC(=O)C(C)C(=O)SCCNC(=O)CCNC(=O)[C@H](O)C(C)(C)CO (some centres unmarked) [Compound 405]
activation at 10 µM [1, 4]: ≥ 10%

COC(=O)CC(C(C)=O)C(=O)SCCNC(=O)CCNC(=O)[C@H](O)C(C)(C)CO (some centres unmarked) [Compound 410]
activation at 50 µM ([2]; assay condition A (10 mM glucose, 2 mM L-glutamine, 1 mM pyruvate, 10% FBS), 50 μM, read-out: Increase in Spare Capacity AUC): ≥ 10%

CC(=O)SCCNC(=O)CCNC(=O)[C@H](O)C(C)(C)COC(=O)[C@H](C)N [Compound 502, (3R)-3-[(2-[[2-(acetylsulfanyl)ethyl]carbamoyl]ethyl)carbamoyl]-3-hydroxy-2,2-dimethylpropyl (2S)-2-aminopropanoate]
activation at 10 µM [2, 6]: ≥ 10%

CC1(CC(=O)SCCNC(=O)CCNC(=O)[C@H](O)C(C)(C)CO)OCCO1 [Compound 1252, (R)—S-(2-(3-(2,4-dihydroxy-3,3-dimethylbutanamido)propanamido)ethyl)-2-(2-methyl-1,3-dioxolan-2-yl)ethanethioate]
activation at 10 µM [1, 3]: ≥ 10%

COC(=O)CC(SCCNC(=O)CCNC(=O)[C@H](O)C(C)(C)COC(C)=O)C(=O)OC (stereo partly drawn) [Compound 149, 1,4-dimethyl 2-[(2-[3-[(2R)-4-(acetyloxy)-2-hydroxy-3,3-dimethylbutanamido]propanamido]ethyl)sulfanyl]butanedioate]
activation at 10 µM [2, 5]: ≥ 10%

CC(C)(CO)[C@@H](O)C(=O)NCCC(=O)NCCSC(=O)[C@@H](N)Cc1ccc(O)c(O)c1 [Compound 371, (2R)—N-[2-[(2-[[(2S)-2-amino-3-(3,4-dihydroxyphenyl)propanoyl]sulfanyl]ethyl)carbamoyl]ethyl]-2,4-dihydroxy-3,3-dimethylbutanamide]
activation at 10 µM [2, 5]: ≥ 10%

CC(C)(CO)[C@@H](OC(=O)CCC(=O)O)C(=O)NCCC(=O)NCCS [Compound 1311, (R)-4-((4-hydroxy-1-((3-((2-mercaptoethyl)amino)-3-oxopropyl)amino)-3,3-dimethyl-1-oxobutan-2-yl)oxy)-4-oxobutanoic acid]
activation at 10 µM [1, 3]: ≥ 10%

CCCCCCC(=O)SCCNC(=O)CCNC(=O)[C@H](O)C(C)(C)CO [Compound 372, (2R)—N-(2-[[2-(heptanoylsulfanyl)ethyl]carbamoyl]ethyl)-2,4-dihydroxy-3,3-dimethylbutanamide]
activation at 10 µM ([2]; assay condition A (10 mM glucose, 2 mM L-glutamine, 1 mM pyruvate, 10% FBS), read-out: Increase in Spare Capacity AUC): ≥ 10%

C[C@H](CC(=O)SCCNC(=O)CCNC(=O)[C@H](O)C(C)(C)CO)OC(=O)CCC(=O)O [Compound 1243, 4-{[(2R)-4-[(2-{3-[(2R)-2,4-dihydroxy-3,3-dimethylbutanamido]propanamido}ethyl)sulfanyl]-4-oxobutan-2-yl]oxy}-4-oxobutanoic acid]
activation at 10 µM [1, 3]: ≥ 10%

CC(C)(CO)[C@@H](O)C(=O)NCCC(=O)NCCSC(=O)CC(=O)CCC(=O)O [Compound 2, 6-[(2-[3-[(2R)-2,4-dihydroxy-3,3-dimethylbutanamido]propanamido]ethyl)sulfanyl]-4,6-dioxohexanoic acid]
activation at 10 µM ([2]; assay condition D (1 mM glucose, 10% FBS), read-out: Increase in Spare Capacity AUC): ≥ 50%

CC(C)(CO)[C@@H](O)C(=O)NCCC(=O)NCCSC(=O)C1CCC(=O)N1 (stereo partly drawn) [Compound 1227, S-2-{3-[(R)-2,4-dihydroxy-3,3-dimethylbutyrylamino]propionylamino}ethyl 5-oxo-2-pyrrolidinecarbothioate]
activation at 10 µM [1, 3]: ≥ 10%
